Source: patent US10039761B2, “Co-crystals and pharmaceutical compositions comprising the same” (Vertex Pharmaceuticals Incorporated, priority 2013, dated 2018)

Columns and labels:
[1] = Body weight in LU-01-0030 xenograft studies; assay type: in vivo, mice
Protocol: The in vivo efficacies of Compounds (1) and (2) were evaluated alone and in combination with three consecutive days of focused IR in the primary LU-01-0030 NSCLC subcutaneous xenograft model. The dose-dependent anti-tumor activity of Compound (2) alone and in combination with focused beam IR was evaluated in the LU-01-0030 model. […] Mice in the combination treatment groups were monitored (without treatment) for up to 90 days as some mice had no evidence of tumor burden.

[2] = Blood exposure in OD26749 bridging study; assay type: in vivo, nude mice; conditions: nude, mouse, whole blood; 100 mg/kg PO bid (0 and 4 h) combination groups with 2 Gy whole body IR
[3] = Body weight in OE-19 xenograft studies; assay type: in vivo
Protocol: The OE-19 cell line xenograft model was used to evaluate the efficacy of Compounds (1) and (2) alone and in combination with IR. Two cycles of treatment were administered (Day 0 and Day 7) as performed in the OD26749 model above.

[4] = test system: ST-02-0004 primary GEJ tumor xenograft; assay: ST-02-0004 primary GEJ tumor xenograft efficacy with focused IR; assay type: in vivo
Protocol: The in vivo activities of Compounds (1) and (2) were compared in combination with focused beam IR in a primary gastric cancer subcutaneous xenograft model. In the ST 02 0004 model, focused IR was administered on three consecutive days alone and in combination with Compound (1) or Compound (2).
The anti-tumor activity of Compound (2) in combination with focused-beam IR and the standard of care agents, paclitaxel and carboplatin, was also evaluated in the ST 02 0004 model. Treatment with paclitaxel, carboplatin, and IR was administered once per week for three weeks alone or in combination with Compound (2).
(§1) In Tables 14 and 15, for example, PO bid (0, 4 h) indicates Compound (2) is administered twice (bid) at time point 0 and then 4 hours after; IR (0.25 h) qdx3 indicates radiation is administered 15 minutes (0.25 h) after the administration of Compound (2) (0 h), and once a day for 3 days (qdx3); q7dx2 indicates once a week for two weeks; qod indicates every other day twice (e.g., Day 1 and Day 3); and paclitaxel q7dx3 (−0.25 h), carboplatin q7dx3 (−0.25 h) indicates administration of paclitaxel and carboplatin 15 minutes prior to the administration of Compound (2), followed by additional administration of Compound (2) after 4 hours after the first administration of Compound (2).

[5] = Body weight in OD26749 xenograft studies; assay type: in vivo, nude mice; conditions: bridging study; Compound (1) PO 100 mg/kg bid (0, 4 h), 2 Gy ([…]) qdx3; Day 1
primary human tumors = assay: Primary tumor chemosensitivity assay (TCA), Cell Titer-Glo, Bliss; assay type: cell-based
Protocol: Primary human tumors tested in vitro may provide a better indicator of efficacy of DNA PK inhibition than immortalized cancer cell lines due to their increased heterogeneity and closer proximity to the patient tumor from which they were derived. […] Dissociated cells from mouse-passaged tumors were cultured for 6 days after combination exposure and then assessed for viability using the Cell Titer-Glo assay. The Bliss Additivity statistical model was used to determine the degree of synergy, additivity, or antagonism of each combination treatment.

[6] = test system: OD26749 primary NSCLC xenograft; assay: OD26749 primary NSCLC xenograft efficacy with whole body IR; assay type: in vivo, nude mice
Protocol: The in vivo efficacies of Compounds (1) and (2) in combination with whole body IR were examined in the OD26749 primary NSCLC (non-small cell lung cancer) and the OE-19 GEJ cell line xenograft models. In these studies, Compounds (1) and (2) were formulated with 16% captisol/1% PVP/1% HPMC E5 pH2.
The in vivo efficacy of Compound (1) was evaluated in the primary OD26749 NSCLC subcutaneous xenograft model. […] […] Compound (1) was administered PO (tid at 0, 3, and 7 h) at 100 mg/kg alone or with a single 2 Gy dose of whole body IR at 3.25 h. […] Compound (1) in combination with 2 Gy whole body IR induced significant tumor regression (% T/Ti of −75; P<0.01) compared to IR alone.
The efficacies of Compounds (1) and (2) in combination with whole body IR (2 Gy) were evaluated in the OD26749 primary NSCLC xenograft model at a Compound ([…]) and Compound (2) dose levels of 50 mg/kg and 100 mg/kg PO bid (0 and 4 h). Two cycles of whole body IR (2 Gy) were given 15 min after the first compound administration (0.25 hour). Control animals were administered vehicle PO bid (0 and 4 h). […]
as §1

[7] = test system: LU-01-0030 primary NSCLC subcutaneous xenograft; assay: LU-01-0030 primary NSCLC xenograft efficacy with focused IR; assay type: in vivo, mice
Protocol: The in vivo efficacies of Compounds (1) and (2) were evaluated alone and in combination with three consecutive days of focused IR in the primary LU-01-0030 NSCLC subcutaneous xenograft model. The dose-dependent anti-tumor activity of Compound (2) alone and in combination with focused beam IR was evaluated in the LU-01-0030 model.
as §1

AUC [2]: 65800 ng·h/mL
Compound: CNC(=O)c1ccnc2c([C@H](C)CNc3cc(-c4cnc(C)nc4)ncn3)cccc12 [Compound (1), (S)-N-methyl-8-(1-((2′-methyl-[4,5′-bipyrimidin]-6-yl)amino)propan-2-yl)quinoline-4-carboxamide]
Max. body wt loss (%) ([1]; Day 24 study, PO 10 mg/kg bid (0, 4 h) qdx3, 2 Gy IR qdx3 ([…]), Day 4): −1.46% | Max. body wt loss (%) ([1]; Day 24 study, PO 25 mg/kg bid (0, 4 h) qdx3, 2 Gy IR qdx3 ([…]), Day 4): −2.03% | Max. body wt loss (%) ([1]; Day 24 study, PO 50 mg/kg bid (0, 4 h) qdx3, 2 Gy IR qdx3 ([…]), Day 4): −1.19% | Max. body wt loss (%) ([1]; Day 24 study, PO 50 mg/kg bid (0, 4 h) qodx2, 2 Gy IR qdx3 ([…]), Day 4): −1.59% | Max. body wt loss (%) ([1]; Day 30 study, PO 100 mg/kg bid (0, 4 h) qdx3, 2 Gy IR ([…]) qdx3, Day 4): −1.42% | Max. body wt loss (%) ([1]; Day 30 study, PO 100 mg/kg tid (0, 3, 7 h) qdx3, 2 Gy IR ([…]) qdx3, Day 4): −1.58% | Max. body wt loss (%) ([1]; Day 30 study, PO 100 mg/kg tid (0, 3, 7 h) qdx5, 2 Gy IR ([…]) qdx3, Day 4): −1.68% | Max. body wt loss (%) ([1]; Day 30 study, PO 100 mg/kg tid (0, 3, 7 h) qdx5, no IR, Day 6): −0.63% | Max. body wt loss (%) ([1]; Day 31 study, PO 10 mg/kg bid (0, 4 h) qdx3, 2 Gy IR ([…]), Day 3): −3.33% | Max. body wt loss (%) ([1]; Day 31 study, PO 50 mg/kg bid (0, 4 h) qdx1, 2 Gy IR ([…]), Day 1): −0.59% | Max. body wt loss (%) ([1]; Day 31 study, PO 50 mg/kg bid (0, 4 h) qdx2, 2 Gy IR ([…]), Day 1): −2.11% | Max. body wt loss (%) ([1]; Day 31 study, PO 50 mg/kg bid (0, 4 h) qdx3, 2 Gy IR ([…]), Day 3): −0.94% | Max. body wt loss (%) ([1]; Day 31 study, PO 50 mg/kg qdx3, 2 Gy IR ([…]), Day 1): −2.07% | Max. body wt loss (%) ([1]; first Day 27 study, PO 25 mg/kg bid (0, 4 h) qdx3, 2 Gy ([…]) IR qdx3, Day 2): −5.81% | Max. body wt loss (%) ([1]; first Day 27 study, PO 50 mg/kg bid (0, 4 h) qdx3, 2 Gy ([…]) IR qdx3, Day 3): −5.70% | Max. body wt loss (%) ([1]; first Day 27 study, PO 100 mg/kg bid (0, 4 h) qdx3, 2 Gy ([…]) IR qdx3, Day 3): −2.87% | Max. body wt loss (%) ([1]; first Day 27 study, PO 100 mg/kg qdx3, 2 Gy ([…]) IR qdx3, Day 2): −3.68% | Max. body wt loss (%) ([1]; second Day 27 study, PO 10 mg/kg bid (0, 4 h) qdx3, 2 Gy ([…]) IR qdx3, Day 2): −5.81% | Max. body wt loss (%) ([1]; second Day 27 study, PO 25 mg/kg bid (0, 4 h) qdx3, 2 Gy ([…]) IR qdx3, Day 3): −5.70% | Max. body wt loss (%) ([1]; second Day 27 study, PO 50 mg/kg bid (0, 4 h) qdx2, 2 Gy ([…]) IR qdx3, Day 3): −2.87% | Max. body wt loss (%) ([1]; second Day 27 study, PO 50 mg/kg bid (0, 4 h) qdx3, 2 Gy ([…]) IR qdx3, Day 2): −3.68% | Max. body weight loss (%) ([3]; PO 100 mg/kg bid (0, 4 h) qd7x2, 2 Gy IR qd7x2 ([…]), Day 1): −3.50% | Max. body weight loss (%) ([3]; PO 100 mg/kg bid (0, 4 h) qd7x 2, no IR, Day 8): −1.70% | % T/Ti (Day 34) ([4]; Compound (1) PO 100 mg/kg bid (0, 4 h) qdx3, 2 Gy IR ([…]) focused): −2.8% | % T/C (Day 34) ([4]; Compound (1) PO 100 mg/kg qdx3, no IR): 95.6% | Max. body wt loss (%) [5]: −2.40% | tumors additive or synergistic / tumors tested (primary human tumors; Compound (1) (10× and 30× IC50) with bleomycin or radiation): 29/29 | tumors with additivity / tumors tested (primary human tumors; Compound (1) with 5-FU): 5/5 | tumors with strong synergy / tumors tested (primary human tumors; Compound (1) with bleomycin): 9/29 | tumors with synergy or additivity / tumors tested (primary human tumors; Compound (1) with carboplatin): 5/5 | tumors with antagonism (primary human tumors; Compound (1) with cisplatin): one tumor showed antagonism | tumors with synergy or additivity / tumors tested (primary human tumors; Compound (1) with cisplatin): 9/10 | tumors with additivity / tumors tested (primary human tumors; Compound (1) with doxorubicin): 1/1 | tumors with strong synergy / tumors tested (primary human tumors; Compound (1) with etoposide): 4/4 | tumors with additivity / tumors tested (primary human tumors; Compound (1) with gemcitabine): 2/4 | tumors with antagonism / tumors tested (primary human tumors; Compound (1) with gemcitabine): 2/4 | tumors with additivity / tumors tested (primary human tumors; Compound (1) with paclitaxel): 1/5 | tumors with antagonism / tumors tested (primary human tumors; Compound (1) with paclitaxel): 1/5 | tumors with strong synergy / tumors tested (primary human tumors; Compound (1) with radiation): 3/8 | time to tumor doubling (TTD) ([6]; Compound (1) single agent group, 100 mg/kg tid, twice one week apart): 2 to 3 days | % T/C (Day 29) ([6]; PO 50 mg/kg bid (0, 4 h), 2 Gy IR ([…]) q7dx2): 11.7% | % T/Ti (Day 29) ([6]; PO 100 mg/kg bid (0, 4 h), 2 Gy IR ([…]) q7dx2): −3.1% | % T/Ti (Day 16) ([6]; PO 100 mg/kg tid (0, 3, 7 h) q7dx2, 2 Gy q7dx2 (3.25 h) whole body IR): −75% | % T/C (Day 16) ([6]; PO 100 mg/kg tid (0, 3, 7 h) q7dx2, no IR): 74% | time to tumor doubling (TTD) ([6]; combination group: 100 mg/kg tid with 2 Gy whole body IR, given twice one week apart): 33.4 days | % T/Ti (Day 31) ([7]; PO 10 mg/kg bid (0, 4 h) qdx3, 2 Gy IR ([…])): −5.3% | % T/Ti (Day 24) ([7]; PO 10 mg/kg bid (0, 4 h) qdx3, 2 Gy IR qdx3 ([…])): −29.8% | % T/Ti (Day 24) ([7]; PO 25 mg/kg bid (0, 4 h) qdx3, 2 Gy IR qdx3 ([…])): −75.2% | % T/C (Day 31) ([7]; PO 50 mg/kg bid (0, 4 h) qdx1, 2 Gy IR ([…])): 7.2% | % T/Ti (Day 31) ([7]; PO 50 mg/kg bid (0, 4 h) qdx2, 2 Gy IR ([…])): −1.7% | % T/Ti (Day 31) ([7]; PO 50 mg/kg bid (0, 4 h) qdx3, 2 Gy IR ([…])): −14.1% | % T/Ti (Day 24) ([7]; PO 50 mg/kg bid (0, 4 h) qdx3, 2 Gy IR qdx3 ([…])): −87.6% | % T/Ti (Day 24) ([7]; PO 50 mg/kg bid (0, 4 h) qodx2, 2 Gy IR qdx3 ([…])): −79.9% | % T/C (Day 31) ([7]; PO 50 mg/kg qdx3, 2 Gy IR ([…])): 4.5% | % T/Ti (Day 30) ([7]; PO 100 mg/kg bid (0, 4 h) qdx3, 2 Gy IR ([…]) qdx3): −85.6% | % T/Ti (Day 30) ([7]; PO 100 mg/kg tid (0, 3, 7 h) qdx3, 2 Gy IR ([…]) qdx3): −90.6% | % T/Ti (Day 30) ([7]; PO 100 mg/kg tid (0, 3, 7 h) qdx5, 2 Gy IR ([…]) qdx3): −91.6% | % T/C (Day 30) ([7]; PO 100 mg/kg tid (0, 3, 7 h) qdx5, no IR): 79.1% | % T/Ti (Day 27) ([7]; first Day 27 study, PO 25 mg/kg bid (0, 4 h) qdx3, 2 Gy ([…]) IR qdx3): −80.3% | % T/Ti (Day 27) ([7]; first Day 27 study, PO 50 mg/kg bid (0, 4 h) qdx3, 2 Gy ([…]) IR qdx3): −87.8% | % T/Ti (Day 27) ([7]; first Day 27 study, PO 100 mg/kg bid (0, 4 h) qdx3, 2 Gy ([…]) IR qdx3): −90.1% | % T/Ti (Day 27) ([7]; first Day 27 study, PO 100 mg/kg qdx3, 2 Gy ([…]) IR qdx3): −76.5% | % T/Ti (Day 27) ([7]; second Day 27 study, PO 10 mg/kg bid (0, 4 h) qdx3, 2 Gy ([…]) IR qdx3): −80.3% | % T/Ti (Day 27) ([7]; second Day 27 study, PO 25 mg/kg bid (0, 4 h) qdx3, 2 Gy ([…]) IR qdx3): −87.8% | % T/Ti (Day 27) ([7]; second Day 27 study, PO 50 mg/kg bid (0, 4 h) qdx2, 2 Gy ([…]) IR qdx3): −90.1% | % T/Ti (Day 27) ([7]; second Day 27 study, PO 50 mg/kg bid (0, 4 h) qdx3, 2 Gy ([…]) IR qdx3): −76.5%
